89 compounds from a melting point compilation (Tetko et al.; mined from patent text by program, amines drawn as free bases though some values may be those of a salt) can be followed below.

Usually melting point stands for the temperature, or range, at which the solid turns liquid.

Compound `O=C(Nc1ccc(-n2nc(C(F)(F)F)cc2C(F)(F)F)cc1)c1cccnc1F` had a melting point of 110 to 112 °C. `CCOC1Nc2c(OC(C)=O)cccc2C(=O)N2CCCC12` (centres undefined): the melting point lay within 146 to 149 °C. In the case of `CCC(O)(CC)c1ccc(-c2cc(-c3c[nH]nc3-c3cccc(C)n3)ccc2F)nc1` it was 94 to 95 °C.

Take `COC1CC(OC)(OC)C(=O)N1` (centres undefined): the melting point amounted to 86 °C. In the case of `O=C1CCCc2nc(C#Cc3ccccc3)ccc21` it was 121 to 122 °C; in that of `CCCCCCCCCCC#Cc1csc(CC(N)CO)c1` (centres undefined), 85 to 135 °C; in that of `CON=C(c1ccccc1)c1ccc2c(c1)C(C)(C)CCN2CCOc1ccc(CC(Nc2ccccc2C(=O)c2ccccc2)C(=O)O)cc1` (centres undefined), 100 to 102 °C. For `OC(COc1ccc(-c2ccccc2Br)cc1)CN1CCCC1` (centres undefined), the melting point lay in the range of 70 to 72 °C.

In turn, `COc1ccc2cc(-c3ccc(C(=O)O)cc3)ccc2c1` displayed a melting point of 288 to 289 °C. In the case of `NC(=O)c1c[nH]c2cc(Cl)c([N+](=O)[O-])cc2c1=O` it was 298 to 300 °C; in that of `O=C1c2ccccc2C(=O)N1Cc1cccc(CN2C(=O)c3ccccc3C2=O)n1`, > 250 °C.

On to `O=S(=O)(c1ccc(Cl)cc1)c1c(-c2ccc(Cl)cc2)[nH]c(C(F)(F)F)c1Br`, for which the melting point was > 230 °C. In the case of `CC(C)COc1c(C2CCN(CCCCNC(=O)c3ccc(-c4ccc(C(F)(F)F)cc4)cc3)CC2)ccc2c1CCCC2` it was 165 °C; in that of `CCOC(=O)COC(=O)c1c(Cl)cccc1Cl`, 50 to 51 °C; in that of `Nc1nn(-c2ccccc2)cc1CO`, 127 to 128 °C.

Regarding `N#CN1CCC(c2nn(-c3ccccc3F)c3ccccc23)CC1`, the melting point was in the range of 119 to 121 °C. With `Oc1cccc(SCCCSc2ccc(Cl)cc2)c1` the figure was 102 °C; with `O=C(NCC1(c2ccccc2)CCCC1)Nc1ccc(F)cc1F`, 160 to 161 °C; with `CCc1ccc2c(c1)C=Cc1ccccc1C2c1cn(Cc2ccc(C(=O)O)o2)c(=O)[nH]c1=O` (centres undefined), 178 to 180 °C. In the case of `Cc1cc(-c2cnn3c(C(F)(F)F)cc(-c4ccc(Cl)cc4)nc23)ccn1` it was 220 °C; in that of `CN(C)C(=O)Sc1ccc(C(=O)c2cccc(C#N)c2)cc1`, 150 °C.

`O=C(c1ccc(Nc2ccnc3cc(C(F)(F)F)ccc23)cc1)N1CCC(Sc2ccc(F)cc2)CC1` returned a melting point of 211 to 214 °C.

`O=C(NCCO)c1ccc(-c2cccc3cc(Cc4cccc(C(F)(F)F)c4)sc23)cc1`: the melting point lay within 120 to 121 °C. On to `CC(n1cncn1)C(O)(Cn1cncn1)c1ccc(Cl)cn1` (centres undefined), for which the melting point lay within 156 to 157 °C. With `CCCCCCc1ccc(-c2ccc(-c3ncc(C(N)=O)cn3)cc2)cc1` the figure was > 260 °C. In the case of `CCOC(=O)C(=O)c1ccc2c(c1)CCO2` it was 139 to 141 °C; in that of `COc1ccc(C2SCCCS2)cc1`, 117 to 119 °C.

On to `CN1C(=O)N(CC(COc2ccc(-c3ccc(OC(F)(F)F)cc3)cc2)N(O)C=O)C(=O)C1(C)C` (centres undefined), for which the melting point was in the range of 114 to 118 °C. `CSc1cc(-c2ccc(Cl)cc2)nc(-c2cccc(Cl)c2)c1`: the melting point turned out to be 98.4 °C. With `O=C(O)c1ccc(C2CCNCC2)cc1` the figure was > 270 °C; with `CC(=O)OC1C(OC(=O)c2ccc(N)cc2)C=C(C)C(=O)CC1(C)C` (centres undefined), 158 to 160 °C. On to `CC(=O)NC[C@H]1CN(c2ccc3c(c2)CCOC3)C(=O)O1`, for which the melting point lay in the range of 142 to 145 °C. With `O=C(N[C@@H](Cc1ccc(C(=O)c2ccccc2)cc1)C(=O)O)OCC1c2ccccc2-c2ccccc21` the figure was 115 to 117 °C. Compound `O=C1NC(=O)C2(C=CC=C3OCC=C32)N1` (centres undefined) gave a melting point of 245 to 248 °C. With `NC(=O)c1ccccc1NC(=O)c1ccc2c(c1)CCO2` the figure was 230 to 235 °C; with `CC1(C)C(=O)C(C)(C)c2cc(C(F)CN3CCN(c4nsc5ccccc45)CC3)ccc21` (centres undefined), 64 to 73 °C; with `CCNc1ncc(-c2cc(Cl)cc(Cl)c2Cl)c(N)n1`, 149 to 152 °C. Compound `O=C1CCCN1C(=O)c1ccc(O)cc1` returned a melting point of 179 to 182 °C.

In the case of `CC(O)c1ccc(CCOc2ccc(CC3SC(=O)NC3=O)cc2)nc1` (centres undefined), the melting point lay within 155 to 156 °C. The compound `Cc1sc(-n2nc(C(=O)O)nc2CCl)c(C(=O)c2ccccc2)c1C` gave a melting point of 162 to 163 °C. In the case of `CC(C)Cc1c[nH]c(-c2ccnc(NC(=O)c3ccccc3)c2)n1` it was 103 to 105 °C; in that of `Cc1ccc(C(O)CN2CCNC2=S)cc1` (centres undefined), 123 °C. With `Cc1ccccc1C=CC(=O)OCCc1ccccc1` the figure was 52 to 53 °C.

For the compound `CNC(=O)NS(=O)(=O)c1cc2c(cc1OC)OCCC2CNC(=O)c1cc(F)ccc1OC` (centres undefined), the melting point lay in the range of 193 to 194 °C.

Turning to `CC(=O)c1cc2c(s1)CCC1CC(=O)N(c3ccc(Cl)cc3)N=C21` (centres undefined), the melting point lay in the range of 155 to 157 °C. `N#CCNC(=O)C1(NC(=O)c2ccc(N3CCN(Cc4ccccc4)CC3)cc2)CCCCC1` returned a melting point of 210 to 212 °C. With `CCOC(=O)CC(C)Sc1nnc(S)s1` (centres undefined), the melting point is 107 to 108 °C.

`O=C(OC[C@@H](O)[C@@H]1CC(c2ccc(-c3ccc(N4C[C@H](Cn5ccnn5)OC4=O)cc3F)cn2)=NO1)c1cccnc1`: the melting point is 210 °C.

In turn, `Cn1c(C#N)ccc1-c1cc(F)c2c(c1)C1(CC1)C(=O)N2` yielded a melting point of 228 to 231 °C. With `CCOC(=O)c1c(Cl)[nH]c(=O)c(I)c1Oc1cc(C)cc(C)c1` the figure was 180 to 182 °C; with `CCn1c(C)nc2cc([N+](=O)[O-])c(Sc3cccc4cnccc34)cc21`, 226 to 229 °C; with `NC(=O)C(=O)c1c2n(c3ccccc13)CCNCC2`, 214 to 215 °C.

As for `NC1=C(c2cccc(C(F)(F)F)c2)C(=O)C(c2ccccc2)C1` (centres undefined), the melting point was 205 to 206 °C.

As to `CC(=NNc1ccc(C2=NNC(=O)CC2C)cc1)c1cc(O)cc(O)c1` (centres undefined), the melting point was in the range of 162 to 166 °C. In the case of `CC12CCC(=O)C=C1CCC1C2=CCC2(C)C1CCC2(O)C(=O)CO` (centres undefined) it was 248 °C; in that of `CCCCOC(=O)NC1C(=O)N(OCC(=O)OC(c2ccccc2)c2ccccc2)C1C` (centres undefined), 105 to 108 °C; in that of `CCc1nc(NC(C)C)c([N+](=O)[O-])c(SC2CCCCC2)n1`, 69 to 71 °C.

Consider `CCOC(=O)CCc1c(OCCCCCBr)ccc2ccc(OCC(=O)OCC)cc12`, for which the melting point is 29.5 to 32 °C. As for `COc1cc(O)ccc1-c1nc2cnccc2[nH]1`, the melting point is 255 °C.

In turn, `CSc1c(C#N)cnn1-c1ccc(C(F)(F)F)cc1Cl` showed a melting point of 59 to 62 °C. With `COc1ccc2c(c1OC)CC=C2c1c[nH]cn1` the figure was 150 °C. In the case of `CC1NC(=S)NN=C1c1ccccc1` (centres undefined) it was 213 to 214 °C. In the case of `Cc1c(C(=O)N(CC(=O)O)c2ccc(N3CCC(O)CC3)c(C#N)c2)cnn1-c1ccc(F)cc1` it was 155 to 158 °C; in that of `O=C(O)C(=NOCc1ccc(Cl)cc1Cl)c1csc(NC(=O)C(F)(F)F)n1`, 170 to 176 °C; in that of `CC(C)(C)OC(=O)NCCCN(CCCCOC(=O)NCNC(=O)CCCCCCNC(=O)OCc1ccccc1)C(=O)OC(C)(C)C`, 115 °C. The compound `O=C(NCc1ccc(Cl)cc1)c1cnc2c(F)cc(O)cc2c1O` returned a melting point of 310 to 313 °C. `COc1ccc(C=O)c(Cl)c1OC(C)=O` yielded a melting point of 48 to 50 °C. With `C=C(C)Cn1c(=O)n(C)c(=O)c2cn(Cc3cccc4ccccc34)nc21` the figure was 187 to 189 °C; with `CC(=O)c1nc(Cl)ccc1N`, 108 to 110 °C; with `FC(F)(F)Oc1ccc2nc(C(F)(F)F)[nH]c2c1`, 158 to 160 °C. In the case of `COc1cc2cc(C(=O)OC(C)(C)C)c(N)cc2cc1OCCN1CCOCC1` it was 125 to 127 °C. With `O=C(O)c1cc(-c2ccccc2C(F)(F)F)nc(C(F)(F)F)c1` the figure was 155 to 157 °C; with `CCc1cc(C)cc(CC)c1C1=C(OCc2ccccc2)C2CC(C=CC(C)=O)CC2C1=O` (centres undefined), 60 °C. Consider `CCCNC(=O)c1ccc(/C=C(\C)c2ccc3c(c2)C(C)(C)CCO3)cc1`, for which the melting point is 138 to 139 °C. `Nc1ccc2nc(-c3ccccc3)oc2c1` came in with a melting point of 212 to 214 °C. In the case of `Cc1c(-c2ccccc2)oc2c(OCC3CO3)cccc2c1=O` (centres undefined) it was 128 to 129 °C.

Compound `Cc1nc2cc(C)c(CN(C)c3ccc(C(=O)NC(CO)c4cccc([N+](=O)[O-])c4)cc3)cc2c(=O)[nH]1` (centres undefined) gave a melting point of 231 to 240 °C.

With `CCOC(=O)c1cnoc1-c1ccc(F)c(F)c1`, the melting point was in the range of 64 to 65 °C. `C[C@H](NC(=O)OC(C)(C)C)C(=O)OCCCNc1cccc2c1C(=O)c1ccccc1C2=O` registered a melting point of 58 °C. In turn, `Cc1oc(-c2ccccc2)nc1COc1ccccc1COc1cccc(CC(=O)O)c1` came in with a melting point of 104 to 105 °C.

The compound `COc1cccc(OC)c1C(=O)P(=S)(CC(C)C)C(=O)c1c(OC)cccc1OC` showed a melting point of 145 to 147 °C. `CCCCc1c(C(C)C)nc(C(C)C)c(CO)c1-c1ccccc1` came in with a melting point of 83 to 84 °C. For the compound `O=C(O)C1=Cc2cc(S(=O)(=O)NCCc3ccccc3)ccc2OC1C(F)(F)F` (centres undefined), the melting point lay within 187 to 190 °C. With `O=C(O)COc1cccc2c1CCc1sc(S(=O)(=O)CC=Cc3ccccc3)nc1-2` the figure was 210 to 214 °C; with `Cc1cc(C(=O)Nc2c(C)cccc2O)c(Br)s1`, 164 to 167 °C; with `CC(=O)CCC(=O)C1=Cc2ccccc2C1`, 85 °C. With `CN(C)/C=C/C(=O)c1ccc2n1Cc1ccccc1N(C(=O)c1ccc(C3CCCCC3)cc1)C2` the figure was 237 to 240 °C.

`CN1CCN(CCCNc2ccc(-n3cc(C(F)(F)F)ccc3=O)c(Cl)c2)CC1` showed a melting point of 129 to 132 °C. `CC(C)c1ccc(S(=O)(=O)n2c(Cc3ccc(C(=O)O)c(O)c3)cc3cc(Cl)ccc32)cc1` came in with a melting point of 139 °C.
